Patent publication US9365588B2, “Benzoxazines as modulators of ion channels” (Vertex Pharmaceuticals Incorporated, priority 2011, dated 2016)

Biological target: human NaV 1.7 (Homo sapiens, UniProt Q15858)
Experiment: E-VIPR optical membrane potential assay with electrical stimulation
Assay type: cell-based
Conditions: sodium channel inhibition; read-out: Binned Activity Data (IC50)
How it was run: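 Membrane-potential read-out: background-subtracted 460 nm/580 nm ratio during a 9 s current-controlled stimulus, 400 Hz scan. Before stimulation, NaV1.7-HEK cells carried coumarin/oxonol dye and compound (final DMSO 0.625%) for 20–35 min at room temperature; tetracaine 125 μM served as positive control.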

human NaV 1.7, sequence (Q15858 whole entry): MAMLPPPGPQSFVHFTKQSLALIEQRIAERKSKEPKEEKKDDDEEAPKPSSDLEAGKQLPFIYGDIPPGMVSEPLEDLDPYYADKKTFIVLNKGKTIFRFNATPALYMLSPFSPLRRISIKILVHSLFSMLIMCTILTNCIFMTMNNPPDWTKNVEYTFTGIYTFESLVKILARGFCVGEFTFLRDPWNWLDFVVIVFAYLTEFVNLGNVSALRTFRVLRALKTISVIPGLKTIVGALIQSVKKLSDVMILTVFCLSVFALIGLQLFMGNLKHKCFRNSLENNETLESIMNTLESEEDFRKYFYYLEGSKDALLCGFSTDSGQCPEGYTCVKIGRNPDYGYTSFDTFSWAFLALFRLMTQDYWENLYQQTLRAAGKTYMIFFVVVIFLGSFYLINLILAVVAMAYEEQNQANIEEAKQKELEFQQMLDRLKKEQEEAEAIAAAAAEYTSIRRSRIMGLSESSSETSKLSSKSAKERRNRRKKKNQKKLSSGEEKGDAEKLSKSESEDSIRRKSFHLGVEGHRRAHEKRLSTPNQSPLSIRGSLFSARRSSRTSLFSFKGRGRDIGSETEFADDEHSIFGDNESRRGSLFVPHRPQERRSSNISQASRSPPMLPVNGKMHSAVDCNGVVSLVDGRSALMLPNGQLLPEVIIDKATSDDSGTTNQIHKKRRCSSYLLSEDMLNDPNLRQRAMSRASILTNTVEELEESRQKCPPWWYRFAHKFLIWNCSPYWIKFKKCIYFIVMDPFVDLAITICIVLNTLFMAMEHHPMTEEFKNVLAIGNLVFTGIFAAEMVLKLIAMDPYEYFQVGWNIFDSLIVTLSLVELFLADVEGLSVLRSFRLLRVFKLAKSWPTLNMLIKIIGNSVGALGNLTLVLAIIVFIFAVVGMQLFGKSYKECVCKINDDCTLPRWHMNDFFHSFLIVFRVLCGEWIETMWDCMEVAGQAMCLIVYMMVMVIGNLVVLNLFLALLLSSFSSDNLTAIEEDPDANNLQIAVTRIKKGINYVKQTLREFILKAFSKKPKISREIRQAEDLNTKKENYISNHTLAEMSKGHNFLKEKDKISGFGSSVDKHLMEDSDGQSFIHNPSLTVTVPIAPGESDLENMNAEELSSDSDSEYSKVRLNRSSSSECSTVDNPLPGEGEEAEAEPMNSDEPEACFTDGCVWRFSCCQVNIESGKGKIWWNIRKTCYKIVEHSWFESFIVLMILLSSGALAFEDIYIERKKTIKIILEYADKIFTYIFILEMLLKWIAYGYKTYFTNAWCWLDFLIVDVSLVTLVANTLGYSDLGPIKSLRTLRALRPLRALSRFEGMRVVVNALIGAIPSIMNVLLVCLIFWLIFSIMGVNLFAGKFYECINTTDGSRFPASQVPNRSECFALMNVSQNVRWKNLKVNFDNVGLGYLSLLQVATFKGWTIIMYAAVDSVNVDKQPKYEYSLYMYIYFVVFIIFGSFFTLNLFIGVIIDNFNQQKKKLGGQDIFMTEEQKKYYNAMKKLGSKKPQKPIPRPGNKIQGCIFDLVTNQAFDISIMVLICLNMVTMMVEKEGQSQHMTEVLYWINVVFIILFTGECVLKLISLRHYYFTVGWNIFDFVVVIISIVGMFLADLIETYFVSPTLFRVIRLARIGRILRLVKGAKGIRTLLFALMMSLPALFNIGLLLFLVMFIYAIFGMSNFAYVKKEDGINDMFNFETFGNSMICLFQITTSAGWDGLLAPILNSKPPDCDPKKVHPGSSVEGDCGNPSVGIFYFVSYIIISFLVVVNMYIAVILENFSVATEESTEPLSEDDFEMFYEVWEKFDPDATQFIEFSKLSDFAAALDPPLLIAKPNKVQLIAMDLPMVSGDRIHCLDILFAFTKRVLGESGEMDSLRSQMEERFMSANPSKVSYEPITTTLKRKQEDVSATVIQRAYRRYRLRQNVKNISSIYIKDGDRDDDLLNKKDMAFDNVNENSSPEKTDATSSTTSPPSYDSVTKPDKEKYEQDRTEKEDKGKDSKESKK

O=C(c1ccc(S(=O)(=O)C(F)F)cc1)N1CCC2(CC1)Oc1ccccc1-n1c(C(F)(F)F)ccc12 [Compound 778]
IC50: ≤ 2000 nM

CS(=O)(=O)c1ccc(C(=O)N2CCC3(CC2)Oc2cc(Cl)ccc2-n2cccc23)c(Cl)c1 [Compound 808]
IC50: ≤ 2000 nM

CC(C)[S+]([O-])c1ccc(C(=O)N2CCC3(CC2)Oc2ccccc2-c2c3cnn2C)cc1 (centres unmarked) [Compound 666]
IC50: 2000 to 5000 nM

CC(C)(C)c1ccc(C(=O)N2CCC3(CC2)Oc2ccccc2-n2cccc23)cc1C#N [Compound 419]
IC50: ≤ 2000 nM

COc1c(CO)cccc1C(=O)N1CCC2(CC1)Oc1ccccc1-n1c(C(F)(F)F)ccc12 [Compound 23]
IC50: ≤ 2000 nM

Cc1cc(C(=O)N2CCC3(CC2)Oc2ccccc2-c2c3cnn2C)c(C)cc1OC(C)C [Compound 202]
IC50: ≤ 2000 nM

O=C(c1ccnc(N2CCCCC2)c1)N1CCC2(CC1)Oc1ccccc1-n1cccc12 [Compound 551]
IC50: ≤ 2000 nM

CC(C)(C)S(=O)(=O)c1ccc(C(=O)N2CCC3(CC2)Oc2ccccc2-c2nn(C(F)(F)F)cc23)cc1 [Compound 78]
IC50: ≤ 2000 nM

CC(C)Oc1ccc(C(=O)N2CCC3(CC2)Oc2ccccc2-c2c3cnn2C)cc1CO [Compound 66]
IC50: ≤ 2000 nM

CC(C)Oc1ccc(C(=O)N2CCC3(CC2)Oc2ccc(F)cc2-c2nn(C)cc23)cc1CO [Compound 180]
IC50: ≤ 2000 nM

CCc1ccc(C(=O)N2CCC3(CC2)Oc2ccccc2-n2cc(C)cc23)cc1OC [Compound 395]
IC50: ≤ 2000 nM

CC(C)Oc1ccc(C(=O)N2CCC3(CC2)Oc2ccccc2-n2c3ccc2S(C)(=O)=O)c(F)c1 [Compound 70]
IC50: ≤ 2000 nM

Cc1cc(S(=O)(=O)C(C)C)ccc1C(=O)N1CCC2(CC1)Oc1ccccc1-c1c2cnn1C [Compound 53]
IC50: ≤ 2000 nM

COc1cc(C(=O)N2CCC3(CC2)Oc2ccccc2-c2c3cnn2C)ccc1OC[C@H](C)OC [Compound 146]
IC50: ≤ 2000 nM

Cn1ncc2c1-c1ccccc1OC21CCN(C(=O)c2ccc3c(c2)CC(C)(C)O3)CC1 [Compound 182]
IC50: 2000 to 5000 nM

CC(=O)c1ccc2n1-c1ccccc1OC21CCN(C(=O)c2ccc(C(C)(C)O)cc2)CC1 [Compound 379]
IC50: ≤ 2000 nM

Cc1cc(C(=O)N2CCC3(CC2)Oc2ccccc2-c2nn(C)cc23)ccc1OC(C)C [Compound 689]
IC50: ≤ 2000 nM

Cn1cc2c(n1)-c1ccccc1OC21CCN(C(=O)c2ccc3nc(Cl)sc3c2)CC1 [Compound 843]
IC50: 2000 to 5000 nM

COc1ccc(C(=O)N2CCC3(CC2)Oc2cc(Cl)ccc2-n2cccc23)c(OC)c1 [Compound 578]
IC50: ≤ 2000 nM

CCc1ccc(C(=O)N2CCC3(CC2)Oc2ccccc2-n2cccc23)cc1OC [Compound 239]
IC50: ≤ 2000 nM

Cc1ccc(C(=O)N2CCC3(CC2)Oc2ccccc2-n2c3ccc2S(C)(=O)=O)cc1Cl [Compound 793]
IC50: ≤ 2000 nM

Cc1cc(C(=O)N2CCC3(CC2)Oc2ncccc2-n2nccc23)ccc1OC(C)C [Compound 255]
IC50: ≤ 2000 nM

COc1ccc2c(c1)OC1(CCN(C(=O)c3ccc(OC(C)C)c(C)c3)CC1)c1cnn(C)c1-2 [Compound 289]
IC50: ≤ 2000 nM

COCCOc1ccc(C(=O)N2CCC3(CC2)Oc2ccccc2-n2cccc23)cc1OC [Compound 791]
IC50: ≤ 2000 nM

CC(C)C(O)c1ccc(C(=O)N2CCC3(CC2)Oc2ccccc2-c2nn(C)cc23)cc1 (centres unmarked) [Compound 4]
IC50: ≤ 2000 nM

COc1cc(C(=O)N2CCC3(CC2)Oc2ccccc2-c2c3cnn2C)ccc1C(C)(C)O [Compound 537]
IC50: ≤ 2000 nM

N#Cc1ccc2n1-c1ccccc1OC21CCN(C(=O)c2ccccc2C(F)F)CC1 [Compound 401]
IC50: ≤ 2000 nM

CCCOc1ccc(C(=O)N2CCC3(CC2)Oc2ccccc2-c2c3cnn2C)cc1C(F)(F)F [Compound 387]
IC50: ≤ 2000 nM

CC(C)S(=O)(=O)c1ccc(C(=O)N2CCC3(CC2)Oc2ccccc2-n2cccc23)cc1 [Compound 579]
IC50: ≤ 2000 nM

COc1cc(C(=O)N2CCC3(CC2)Oc2cc(F)ccc2-n2cccc23)ccc1C(C)(C)OC [Compound 567]
IC50: ≤ 2000 nM

Cc1ccc(C(=O)N2CCC3(CC2)Oc2cc(F)ccc2-n2cccc23)cc1C [Compound 349]
IC50: ≤ 2000 nM

COC[C@@H](C)Oc1ccc(C(=O)N2CCC3(CC2)Oc2cc(Cl)ccc2-n2cccc23)cc1OC [Compound 31]
IC50: ≤ 2000 nM

Cn1ncc2c1-c1cc(F)ccc1OC21CCN(C(=O)c2ccccc2OC(F)(F)F)CC1 [Compound 382]
IC50: ≤ 2000 nM

CCOc1cccc(C(=O)N2CCC3(CC2)Oc2ccccc2-n2c(C#N)ccc23)c1F [Compound 485]
IC50: ≤ 2000 nM

Cc1cc(C(=O)N2CCC3(CC2)Oc2cc(F)ccc2-n2cccc23)ccc1OCC1CCCO1 (centres unmarked) [Compound 74]
IC50: ≤ 2000 nM

Cn1ncc2c1-c1ccccc1OC21CCN(C(=O)c2cccnc2Oc2ccc(F)cc2)CC1 [Compound 862]
IC50: ≤ 2000 nM

COCCCOc1ccc(C(=O)N2CCC3(CC2)Oc2ccccc2-n2cccc23)cc1OC [Compound 83]
IC50: ≤ 2000 nM

Cc1nc2ccc(C(=O)N3CCC4(CC3)Oc3ccccc3-c3nn(C)cc34)cc2s1 [Compound 611]
IC50: ≤ 2000 nM

COc1cc(C(=O)N2CCC3(CC2)Oc2cccnc2-n2cccc23)ccc1OCCC(C)C [Compound 165]
IC50: ≤ 2000 nM

COc1cc(C(=O)N2CCC3(CC2)Oc2ccccc2-c2[nH]ncc23)ccc1OC(C)(C)C [Compound 553]
IC50: 2000 to 5000 nM

COc1cccc2c(C(=O)N3CCC4(CC3)Oc3ccccc3-c3c4cnn3C)c[nH]c12 [Compound 460]
IC50: ≤ 2000 nM

COc1ccc(C(=O)N2CCC3(CC2)Oc2ccccc2-n2c(C(F)(F)F)ccc23)cc1Cl [Compound 871]
IC50: ≤ 2000 nM

CC(C)S(=O)(=O)c1ccc(C(=O)N2CCC3(CC2)Oc2ccccc2-n2ccnc23)cc1 [Compound 119]
IC50: 2000 to 5000 nM

COc1ccc(C(=O)N2CCC3(CC2)Oc2ccccc2-c2c3ccn2C)cc1C(F)(F)F [Compound 568]
IC50: ≤ 2000 nM

COc1cc(C(=O)N2CCC3(CC2)Oc2ccccc2-n2c([S+](C)[O-])ccc23)ccc1OC(C)(C)C (centres unmarked) [Compound 46]
IC50: > 5000 nM

CCn1ncc2c1-c1ccccc1OC21CCN(C(=O)c2ccc(OCCOC)c(OC)c2)CC1 [Compound 51]
IC50: ≤ 2000 nM

CN(C)S(=O)(=O)c1ccc(C(=O)N2CCC3(CC2)Oc2ccccc2-c2c3cnn2C)cc1 [Compound 714]
IC50: 2000 to 5000 nM

Cc1nc2ccc(C(=O)N3CCC4(CC3)Oc3ccccc3-c3c4cnn3C)cc2s1 [Compound 324]
IC50: > 5000 nM

COc1cc(Cl)ccc1C(=O)N1CCC2(CC1)Oc1cc(Cl)ccc1-n1cccc12 [Compound 434]
IC50: ≤ 2000 nM

O=C(c1ccc(S(=O)(=O)[C@H]2CCOC2)cc1)N1CCC2(CC1)Oc1ccccc1-n1c(C(F)(F)F)ccc12 [Compound 151]
IC50: ≤ 2000 nM

COc1ccc(C(=O)N2CCC3(CC2)Oc2ccccc2-n2cccc23)cc1S(N)(=O)=O [Compound 542]
IC50: 2000 to 5000 nM

COc1cc(C(=O)N2CCC3(CC2)Oc2cc(F)ccc2-n2cccc23)ccc1OC[C@H]1COC(C)(C)O1 [Compound 228]
IC50: ≤ 2000 nM

Cc1cc(C(=O)N2CCC3(CC2)Oc2ccccc2-c2c3cnn2C)ccc1S(C)(=O)=O [Compound 141]
IC50: ≤ 2000 nM

COc1c(F)cccc1C(=O)N1CCC2(CC1)Oc1ccccc1-c1c2cnn1C(C)C [Compound 544]
IC50: ≤ 2000 nM

COc1cc(C(=O)N2CCC3(CC2)Oc2ccccc2-n2cccc23)ccc1OC1CCCC1 [Compound 342]
IC50: ≤ 2000 nM

Cc1c(CO)cccc1C(=O)N1CCC2(CC1)Oc1ccccc1-n1c(C#N)ccc12 [Compound 516]
IC50: ≤ 2000 nM
